Results: ChEMBL document CHEMBL1201862, “PubChem BioAssay data set” (2004)
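Test compounds were applied to cells in 96-well plates for 48 hours at 5 doses. At the GI50, growth is halved.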 Activity calls are given as the source filed them. Cut-off read from the data, not from the text of the source: active = GI50 up to about 1.1 µM and inactive = higher.

Assays:
Test in all cases: DTP human tumour cell line panel, 48 h
SF-295 = system: SF-295
HCT-116 = system: HCT-116
OVCAR-8 = system: OVCAR-8
MOLT-4 = system: MOLT-4
SW-620 = system: SW-620
CCRF-CEM = system: CCRF-CEM
A549 = system: A549
MDA-MB-231 = system: MDA-MB-231
IGROV-1 = system: IGROV-1
NCI/ADR-RES = system: NCI/ADR-RES
UO-31 = system: UO-31
MDA-MB-435 = system: MDA-MB-435
HOP-62 = system: HOP-62
ACHN = system: ACHN
T47D = system: T47D
786-0 = system: 786-0
MCF7 = system: MCF7
PC-3 = system: PC-3
SK-MEL-2 = system: SK-MEL-2
SF-539 = system: SF-539

Row | Structure (SMILES) | GI50 (SF-295) | GI50 (HCT-116) | GI50 (OVCAR-8) | GI50 (MOLT-4) | GI50 (SW-620) | GI50 (CCRF-CEM) | GI50 (A549) | GI50 (MDA-MB-231) | GI50 (IGROV-1) | GI50 (NCI/ADR-RES) | GI50 (UO-31) | GI50 (MDA-MB-435) | GI50 (HOP-62) | GI50 (ACHN) | GI50 (T47D) | GI50 (786-0) | GI50 (MCF7) | GI50 (PC-3) | GI50 (SK-MEL-2) | GI50 (SF-539)
1 | COc1ccc(N2C(=O)C3c4[nH]c5ccccc5c4C4CCC(C(C)C)CC4C3C2=O)cc1 (configuration not stated) | 53 µM (inactive) | > 100 µM (inactive) | > 100 µM (inactive) | > 100 µM (inactive) | > 100 µM (inactive) | 0.343 µM (active) | > 100 µM (inactive) | > 100 µM (inactive) | > 100 µM (inactive) | > 100 µM (inactive) | > 100 µM (inactive) | > 100 µM (inactive) | 33 µM (inactive) | > 100 µM (inactive) | > 100 µM (inactive) | > 100 µM (inactive) | > 100 µM (inactive) | > 100 µM (inactive) | > 100 µM (inactive) | 
2 | O=c1cc(CO)oc(C(O)c2ccccc2)c1O (configuration not stated) | > 100 µM (inactive) | > 100 µM (inactive) | > 100 µM (inactive) | > 100 µM (inactive) | > 100 µM (inactive) |  | > 100 µM (inactive) | > 100 µM (inactive) | > 100 µM (inactive) | > 100 µM (inactive) | > 100 µM (inactive) | > 100 µM (inactive) | > 100 µM (inactive) | > 100 µM (inactive) | > 100 µM (inactive) | > 100 µM (inactive) | > 100 µM (inactive) | > 100 µM (inactive) | > 100 µM (inactive) | > 100 µM (inactive)
3 | CC1(C)C(=O)/C=C\C(=O)C(C)(C)C(=O)/C=C\C(=O)C(C)(C)C(=O)/C=C\C(=O)C(C)(C)C(=O)/C=C\C1=O | 23.6 µM (inactive) | 15.7 µM (inactive) | 19.7 µM (inactive) | 3.53 µM (inactive) | 11.1 µM (inactive) | 3.51 µM (inactive) | > 70.8 µM (inactive) | 26.2 µM (inactive) | 34.4 µM (inactive) |  | 34.8 µM (inactive) | 31.2 µM (inactive) | > 100 µM (inactive) | 26.8 µM (inactive) | 30.8 µM (inactive) | 24.1 µM (inactive) | 45.9 µM (inactive) | > 100 µM (inactive) | 25.2 µM (inactive) | 28 µM (inactive)
4 | CCC12CCCN(Cc3ccccc3)C1c1c([nH]c3ccccc13)C(C(=O)OC)C2 (configuration not stated) | > 10 µM (inactive) | 4.08 µM (inactive) | > 10 µM (inactive) | 5.85 µM (inactive) | > 10 µM (inactive) | > 10 µM (inactive) | > 10 µM (inactive) | > 10 µM (inactive) | > 10 µM (inactive) | > 10 µM (inactive) |  | > 10 µM (inactive) | > 10 µM (inactive) | > 10 µM (inactive) | 5.75 µM (inactive) | > 10 µM (inactive) | > 10 µM (inactive) | > 10 µM (inactive) |  | > 10 µM (inactive)
5 | COC(=O)c1ccc(/C=C2\CCc3ccccc3C2=O)cc1 | > 100 µM (inactive) | > 100 µM (inactive) | > 100 µM (inactive) | > 100 µM (inactive) | > 100 µM (inactive) | > 100 µM (inactive) | > 100 µM (inactive) | > 100 µM (inactive) | > 100 µM (inactive) | > 100 µM (inactive) | > 100 µM (inactive) | > 100 µM (inactive) | > 100 µM (inactive) | > 100 µM (inactive) | > 100 µM (inactive) | > 100 µM (inactive) | > 100 µM (inactive) | > 100 µM (inactive) |  | > 100 µM (inactive)
6 | C=CC(C)(C)/C(=C\CO[Si](C(C)C)(C(C)C)C(C)C)C(=O)N(C)c1ccccc1I | 13 µM (inactive) | 3.13 µM (inactive) | 14.8 µM (inactive) | 9.79 µM (inactive) | 12.6 µM (inactive) | 5.79 µM (inactive) | 10.7 µM (inactive) | 13.3 µM (inactive) | 15.5 µM (inactive) | 19.5 µM (inactive) | 12.8 µM (inactive) | 24.9 µM (inactive) | 16.3 µM (inactive) | 13.1 µM (inactive) | 9.98 µM (inactive) | 14.5 µM (inactive) | 11.5 µM (inactive) | 2.71 µM (inactive) |  | 18 µM (inactive)
7 | Cc1ccc2c(c1)C=CC1(O2)N(c2ccccc2)C(=S)OC1(C)C (configuration not stated) | 48.2 µM (inactive) | 21.5 µM (inactive) | > 100 µM (inactive) | 29.9 µM (inactive) | 75.5 µM (inactive) | 53 µM (inactive) | 67.5 µM (inactive) | > 100 µM (inactive) | 10.1 µM (inactive) | > 100 µM (inactive) | 28.5 µM (inactive) | 22.1 µM (inactive) | > 100 µM (inactive) | > 100 µM (inactive) | 3.86 µM (inactive) | > 100 µM (inactive) | 21.3 µM (inactive) | 9.27 µM (inactive) | 29 µM (inactive) | 
